From ChEMBL document CHEMBL3407416, “Discovery of (R)-8-(1-(3,5-difluorophenylamino)ethyl)-N,N-dimethyl-2-morpholino-4-oxo-4H-chromene-6-carboxamide (AZD8186): a potent and selective inhibitor of PI3Kβ and PI3Kδ for the treatment of PTEN-deficient cancers” (J Med Chem, 2015)
pIC50: −log10 of the molar value.

Experiments:
[1] = Lipophilicity, log D of the compound at pH 7.4 by shake-flask method; format: physicochemical; settings: buffer
[2] = Intrinsic clearance in cryopreserved human hepatocytes measured per 10^6 cells; format: ADME, cell-based, Hepatocyte; settings: read-out: CLH
[3] = Apparent permeability from apical to basolateral side of human Caco2 cells; format: ADME, cell-based; settings: Caco-2, read-out: permeability
[4] = target: T1, Phosphatidylinositol 4,5-bisphosphate 3-kinase catalytic subunit alpha isoform (Homo sapiens, UniProt P42336); test: Inhibition of human recombinant PI3Kalpha using PIP2 by Kinase-Glo Plus assay
Target sequence in this assay (P42336 whole entry, canonical isoform): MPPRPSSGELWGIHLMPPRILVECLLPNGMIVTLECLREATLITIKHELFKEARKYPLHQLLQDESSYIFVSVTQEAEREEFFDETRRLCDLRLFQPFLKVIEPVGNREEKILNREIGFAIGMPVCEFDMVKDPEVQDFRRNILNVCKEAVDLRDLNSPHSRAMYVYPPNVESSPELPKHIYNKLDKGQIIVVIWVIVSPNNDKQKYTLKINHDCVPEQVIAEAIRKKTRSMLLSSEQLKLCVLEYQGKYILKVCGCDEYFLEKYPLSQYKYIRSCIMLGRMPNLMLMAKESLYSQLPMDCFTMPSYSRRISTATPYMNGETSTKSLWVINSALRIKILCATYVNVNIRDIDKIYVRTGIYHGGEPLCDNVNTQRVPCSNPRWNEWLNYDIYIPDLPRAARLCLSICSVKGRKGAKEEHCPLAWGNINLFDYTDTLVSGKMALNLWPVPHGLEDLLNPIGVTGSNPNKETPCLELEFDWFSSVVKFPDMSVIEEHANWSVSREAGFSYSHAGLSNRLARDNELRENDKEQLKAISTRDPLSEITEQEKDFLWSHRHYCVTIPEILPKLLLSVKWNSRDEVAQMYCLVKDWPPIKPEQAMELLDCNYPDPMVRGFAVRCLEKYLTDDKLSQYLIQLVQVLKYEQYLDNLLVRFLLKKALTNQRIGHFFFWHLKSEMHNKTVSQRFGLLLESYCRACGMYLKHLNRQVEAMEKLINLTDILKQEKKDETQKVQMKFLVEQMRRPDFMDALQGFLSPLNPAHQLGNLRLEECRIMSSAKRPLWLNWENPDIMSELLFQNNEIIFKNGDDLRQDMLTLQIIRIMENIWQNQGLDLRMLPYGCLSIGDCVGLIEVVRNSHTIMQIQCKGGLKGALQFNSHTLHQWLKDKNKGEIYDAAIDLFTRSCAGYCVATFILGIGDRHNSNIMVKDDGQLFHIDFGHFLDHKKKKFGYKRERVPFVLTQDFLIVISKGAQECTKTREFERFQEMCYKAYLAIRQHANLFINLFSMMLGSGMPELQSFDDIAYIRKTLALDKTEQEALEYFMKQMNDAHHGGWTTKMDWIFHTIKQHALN

[5] = target: T2, Phosphatidylinositol 4,5-bisphosphate 3-kinase catalytic subunit beta isoform (Homo sapiens, UniProt P42338); test: Inhibition of human recombinant PI3Kbeta using PIP2 by Kinase-Glo Plus assay
[6] = target: Phosphatidylinositol 4,5-bisphosphate 3-kinase catalytic subunit gamma isoform (Homo sapiens, UniProt P48736); test: Inhibition of human recombinant PI3Kgamma using PIP2 by Kinase-Glo Plus assay
[7] = target: T3, Phosphatidylinositol 4,5-bisphosphate 3-kinase catalytic subunit delta isoform (Homo sapiens, UniProt O00329); test: Inhibition of human recombinant PI3Kdelta using PIP2 by Kinase-Glo Plus assay
T3 sequence (O00329 whole entry): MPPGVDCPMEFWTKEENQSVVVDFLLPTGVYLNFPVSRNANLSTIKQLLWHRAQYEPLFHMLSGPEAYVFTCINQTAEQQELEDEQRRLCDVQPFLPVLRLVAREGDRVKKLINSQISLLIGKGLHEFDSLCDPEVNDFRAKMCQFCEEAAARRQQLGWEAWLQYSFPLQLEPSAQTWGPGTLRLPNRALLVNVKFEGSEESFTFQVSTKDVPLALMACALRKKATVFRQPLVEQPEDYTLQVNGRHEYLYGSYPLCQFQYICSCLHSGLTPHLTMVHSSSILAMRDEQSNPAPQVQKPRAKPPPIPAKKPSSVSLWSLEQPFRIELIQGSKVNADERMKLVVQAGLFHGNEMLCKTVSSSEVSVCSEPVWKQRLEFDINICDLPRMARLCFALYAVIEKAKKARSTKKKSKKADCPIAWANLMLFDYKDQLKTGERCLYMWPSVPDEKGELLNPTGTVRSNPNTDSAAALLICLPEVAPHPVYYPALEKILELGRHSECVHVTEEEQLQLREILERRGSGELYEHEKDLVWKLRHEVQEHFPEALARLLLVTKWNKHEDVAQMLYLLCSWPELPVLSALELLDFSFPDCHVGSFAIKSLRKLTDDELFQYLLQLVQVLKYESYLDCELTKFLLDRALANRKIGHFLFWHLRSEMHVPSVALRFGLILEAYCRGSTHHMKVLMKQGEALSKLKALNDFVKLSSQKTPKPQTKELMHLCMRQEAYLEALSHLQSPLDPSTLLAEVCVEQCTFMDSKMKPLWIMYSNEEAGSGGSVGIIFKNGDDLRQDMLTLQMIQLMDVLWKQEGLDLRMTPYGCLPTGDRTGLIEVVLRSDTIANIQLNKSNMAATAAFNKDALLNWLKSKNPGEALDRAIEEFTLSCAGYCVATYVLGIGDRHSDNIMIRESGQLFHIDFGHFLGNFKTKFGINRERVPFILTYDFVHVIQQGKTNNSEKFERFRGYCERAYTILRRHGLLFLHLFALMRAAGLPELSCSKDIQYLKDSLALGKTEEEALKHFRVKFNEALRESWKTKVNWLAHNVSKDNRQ

[8] = target: T1, Phosphatidylinositol 4,5-bisphosphate 3-kinase catalytic subunit alpha isoform; test: Inhibition of PI3Kalpha mutant human BT474 cells assessed as inhibition of Akt phosphorylation at […] after 2 hrs; format: cell-based; settings: bt-474
Target sequence in this assay (P42336 whole entry, looked up, canonical isoform): as the sequence (P42336 whole entry, canonical isoform) above

[9] = target: T2, Phosphatidylinositol 4,5-bisphosphate 3-kinase catalytic subunit beta isoform; test: Inhibition of PI3Kbeta in PTEN-null human MDA-MB-468 cells assessed as inhibition of Akt phosphorylation after 2 hrs; format: cell-based

Sequence of Phosphatidylinositol 4,5-bisphosphate 3-kinase catalytic subunit gamma isoform (P48736 whole entry, canonical isoform): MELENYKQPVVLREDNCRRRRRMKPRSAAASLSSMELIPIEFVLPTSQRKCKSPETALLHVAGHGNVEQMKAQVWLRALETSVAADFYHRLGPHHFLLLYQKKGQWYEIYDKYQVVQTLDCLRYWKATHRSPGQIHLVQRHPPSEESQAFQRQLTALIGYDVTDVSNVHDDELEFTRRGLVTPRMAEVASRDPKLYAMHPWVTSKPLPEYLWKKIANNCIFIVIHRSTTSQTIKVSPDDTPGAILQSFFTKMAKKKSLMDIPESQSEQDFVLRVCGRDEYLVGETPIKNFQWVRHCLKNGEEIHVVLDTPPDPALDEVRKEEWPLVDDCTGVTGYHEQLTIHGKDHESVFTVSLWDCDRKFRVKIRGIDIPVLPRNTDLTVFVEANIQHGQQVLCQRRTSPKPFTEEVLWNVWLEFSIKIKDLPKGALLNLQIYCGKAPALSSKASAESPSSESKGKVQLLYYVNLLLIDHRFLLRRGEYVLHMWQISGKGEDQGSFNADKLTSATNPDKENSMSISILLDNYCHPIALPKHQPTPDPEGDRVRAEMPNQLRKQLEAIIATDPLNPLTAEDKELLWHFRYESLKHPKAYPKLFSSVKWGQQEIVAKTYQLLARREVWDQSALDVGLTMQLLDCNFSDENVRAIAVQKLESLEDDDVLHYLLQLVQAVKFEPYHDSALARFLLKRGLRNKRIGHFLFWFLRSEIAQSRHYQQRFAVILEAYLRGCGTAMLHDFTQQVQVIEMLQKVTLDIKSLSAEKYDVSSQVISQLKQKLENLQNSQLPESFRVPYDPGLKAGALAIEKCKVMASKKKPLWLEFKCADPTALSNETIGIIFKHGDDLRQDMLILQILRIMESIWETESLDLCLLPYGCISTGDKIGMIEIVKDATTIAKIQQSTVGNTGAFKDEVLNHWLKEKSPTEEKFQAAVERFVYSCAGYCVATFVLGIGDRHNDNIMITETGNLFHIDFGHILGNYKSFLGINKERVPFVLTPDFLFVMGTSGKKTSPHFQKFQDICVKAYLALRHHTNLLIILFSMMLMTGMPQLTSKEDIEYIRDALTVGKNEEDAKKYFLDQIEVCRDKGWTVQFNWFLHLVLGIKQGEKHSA
T2 sequence (P42338 whole entry, canonical isoform): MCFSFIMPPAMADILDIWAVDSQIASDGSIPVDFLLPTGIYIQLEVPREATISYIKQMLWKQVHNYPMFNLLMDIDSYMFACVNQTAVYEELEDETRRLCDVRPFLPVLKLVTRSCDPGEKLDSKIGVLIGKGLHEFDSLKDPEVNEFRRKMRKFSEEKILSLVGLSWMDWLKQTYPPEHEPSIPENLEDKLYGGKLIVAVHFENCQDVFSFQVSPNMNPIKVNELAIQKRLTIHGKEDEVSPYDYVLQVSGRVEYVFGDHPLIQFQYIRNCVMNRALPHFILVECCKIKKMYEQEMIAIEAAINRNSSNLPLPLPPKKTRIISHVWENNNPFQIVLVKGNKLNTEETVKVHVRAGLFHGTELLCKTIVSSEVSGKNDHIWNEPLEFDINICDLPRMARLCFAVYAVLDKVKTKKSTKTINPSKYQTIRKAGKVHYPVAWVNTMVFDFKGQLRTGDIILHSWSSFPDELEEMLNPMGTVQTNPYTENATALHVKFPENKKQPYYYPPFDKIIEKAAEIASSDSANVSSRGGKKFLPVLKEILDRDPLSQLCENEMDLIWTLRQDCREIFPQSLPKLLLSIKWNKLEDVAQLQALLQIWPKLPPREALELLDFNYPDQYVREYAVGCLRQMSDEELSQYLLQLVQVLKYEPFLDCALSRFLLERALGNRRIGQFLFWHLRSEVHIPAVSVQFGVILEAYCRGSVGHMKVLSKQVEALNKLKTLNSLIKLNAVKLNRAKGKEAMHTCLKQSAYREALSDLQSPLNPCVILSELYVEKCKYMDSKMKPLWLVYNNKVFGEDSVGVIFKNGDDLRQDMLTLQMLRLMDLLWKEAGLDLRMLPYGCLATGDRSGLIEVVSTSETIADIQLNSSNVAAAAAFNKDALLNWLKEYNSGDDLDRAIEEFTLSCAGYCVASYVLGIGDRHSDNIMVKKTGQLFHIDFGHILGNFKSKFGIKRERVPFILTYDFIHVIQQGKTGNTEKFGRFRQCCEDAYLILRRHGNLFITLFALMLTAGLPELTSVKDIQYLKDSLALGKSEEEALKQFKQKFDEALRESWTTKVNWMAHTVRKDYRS

SMILES	logD [1]	hepatocyte CLint [2]	Papp A→B [3]	pIC50 [4]	pIC50 [5]	pIC50 [6]	pIC50 [7]	pIC50 [8]	pIC50 [9]
CN(C)C(=O)c1cc(CN(C)c2cc(F)cc(F)c2)c2oc(N3CCOCC3)cc(=O)c2c1	2.6	< 5 µL/min/1e6 cells	36 ×10⁻⁶ cm/s	–	–	–	–	–	–
C[C@H](Nc1cc(F)cc(F)c1)c1cc(C(=O)N(C)C)cc2c(=O)cc(N3CCO[C@@H](C)C3)oc12	2.6	< 3 µL/min/1e6 cells	–	6.89	8.05	5.54	7.10	5.59	7.92
CC(Nc1cccc(F)c1)c1cc(C(=O)N(C)C)cc2c(=O)cc(N3CCOCC3)oc12 (racemic)	1.9	< 3 µL/min/1e6 cells	–	6.66	7.92	5.59	7.14	5.62	7.49
CC(Nc1cc(F)cc(F)c1)c1cc(C(=O)N2CCCCC2)cc2c(=O)cc(N3CCOCC3)oc12 (racemic)	3.1	21 µL/min/1e6 cells	–	6.70	7.92	6.00	7.23	5.51	7.85
CC(Nc1ccc(F)c(Cl)c1)c1cc(C(=O)N(C)C)cc2c(=O)cc(N3CCOCC3)oc12 (racemic)	2.4	8 µL/min/1e6 cells	–	6.77	7.92	5.74	7.19	5.26	7.80
CC(c1cc(C(=O)N2CCCC2)cc2c(=O)cc(N3CCOCC3)oc12)N(C)c1cc(F)cc(F)c1 (racemic)	3.1	12 µL/min/1e6 cells	–	6.29	7.89	5.46	6.92	5.23	7.00

The remaining molecules from weak to strong by pIC50 [4], led by results:

logD [1]	hepatocyte CLint [2]	Papp A→B [3]	pIC50 [4]	pIC50 [5]	pIC50 [6]	pIC50 [7]	pIC50 [8]	pIC50 [9]	SMILES
3.2	17 µL/min/1e6 cells	–	6.82	8.00	5.92	7.15	5.49	7.80	CCN(CC)C(=O)c1cc(C(C)Nc2cc(F)cc(F)c2)c2oc(N3CCOCC3)cc(=O)c2c1 (racemic)
2.5	5 µL/min/1e6 cells	–	6.96	8.10	6.03	7.23	5.68	8.15	CCN(C)C(=O)c1cc(C(C)Nc2cc(F)cc(F)c2)c2oc(N3CCOCC3)cc(=O)c2c1 (racemic)
–	< 4 µL/min/1e6 cells	–	6.96	–	5.85	7.64	5.82	–	C[C@@H](Nc1cc(F)c(F)c(F)c1)c1cc(C(=O)N(C)C)cc2c(=O)cc(N3CCOCC3)oc12
2.7	6 µL/min/1e6 cells	8.5 ×10⁻⁶ cm/s	7.01	8.05	6.15	7.30	6.40	8.70	CC(Nc1cc(F)cc(F)c1)c1cc(C(=O)N2CCCC2)cc2c(=O)cc(N3CCOCC3)oc12 (racemic)
1.5	< 3 µL/min/1e6 cells	1 ×10⁻⁶ cm/s	7.05	8.00	6.28	7.21	5.16	7.82	CC(Nc1cc(F)cc(F)c1)c1cc(C(=O)N(C)CCO)cc2c(=O)cc(N3CCOCC3)oc12 (racemic)
3.1	< 4 µL/min/1e6 cells	–	7.23	8.05	6.15	7.36	5.54	7.85	CCNC(=O)c1cc(C(C)Nc2cc(F)cc(F)c2)c2oc(N3CCOCC3)cc(=O)c2c1 (racemic)
2.6	< 3 µL/min/1e6 cells	9.2 ×10⁻⁶ cm/s	7.54	–	6.46	7.70	6.55	–	C[C@@H](Nc1cc(F)cc(F)c1)c1cc(C(=O)N2CCC2)cc2c(=O)cc(N3CCOCC3)oc12
